From ChEMBL document CHEMBL1201862, “PubChem BioAssay data set” (2004)
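Interpolation was linear, between the two tested concentrations surrounding the appropriate level; five concentrations were tested over 48 hours in 96-well plates. GI50: concentration for 50% inhibition of growth.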 Active and inactive are the calls of the source. Rule as the data show it: active = GI50 up to about 1.1 µM and inactive = higher.

Key:
Assay in all cases: inhibition of tumour cell growth, NCI panel, 48 h
ACHN = tested on: ACHN
CAKI-1 = tested on: CAKI-1
CCRF-CEM = tested on: CCRF-CEM
COLO 205 = tested on: COLO 205
EKVX = tested on: EKVX
HCT-116 = tested on: HCT-116
HOP-92 = tested on: HOP-92
IGROV-1 = tested on: IGROV-1
M19-MEL = tested on: M19-MEL
Malme-3M = tested on: Malme-3M
NCI-H23 = tested on: NCI-H23
NCI-H460 = tested on: NCI-H460
OVCAR-5 = tested on: OVCAR-5
OVCAR-8 = tested on: OVCAR-8
RXF 393 = tested on: RXF 393
SK-OV-3 = tested on: SK-OV-3
TK-10 = tested on: TK-10
UACC-62 = tested on: UACC-62
BT-549 = tested on: BT-549
NCI/ADR-RES = tested on: NCI/ADR-RES

## COc1ccc(C2=C(Cl)c3cc(OC)c(OC)cc3C2Cl)cc1OC (stereo unspecified)
ACHN
  GI50: 16.6 µM (inactive)
CAKI-1
  GI50: 14.7 µM (inactive)
CCRF-CEM
  GI50: 4.32 µM (inactive)
COLO 205
  GI50: 18.3 µM (inactive)
EKVX
  GI50: 22.2 µM (inactive)
HCT-116
  GI50: 15.2 µM (inactive)
HOP-92
  GI50: 24.8 µM (inactive)
IGROV-1
  GI50: 20.9 µM (inactive)
M19-MEL
  GI50: 17.3 µM (inactive)
Malme-3M
  GI50: 19.6 µM (inactive)
NCI-H23
  GI50: 15.9 µM (inactive)
NCI-H460
  GI50: 16.5 µM (inactive)
OVCAR-5
  GI50: 16.3 µM (inactive)
OVCAR-8
  GI50: 15.4 µM (inactive)
RXF 393
  GI50: 14.2 µM (inactive)
SK-OV-3
  GI50: 32.1 µM (inactive)
TK-10
  GI50: 19.4 µM (inactive)
UACC-62
  GI50: 15.4 µM (inactive)

## C=C(c1ccccc1)[C@@]1(O)CC[C@@H]1N(CC#N)Cc1ccccc1
ACHN
  GI50: 20.8 µM (inactive)
BT-549
  GI50: 19.9 µM (inactive)
CAKI-1
  GI50: 18.9 µM (inactive)
CCRF-CEM
  GI50: 32 µM (inactive)
COLO 205
  GI50: 16.3 µM (inactive)
EKVX
  GI50: 37.7 µM (inactive)
HCT-116
  GI50: 16.6 µM (inactive)
HOP-92
  GI50: 18.7 µM (inactive)
IGROV-1
  GI50: 36.1 µM (inactive)
M19-MEL
  GI50: 28.3 µM (inactive)
Malme-3M
  GI50: 3.23 µM (inactive)
NCI-H23
  GI50: 23.1 µM (inactive)
NCI-H460
  GI50: 44.3 µM (inactive)
NCI/ADR-RES
  GI50: 19.7 µM (inactive)
OVCAR-5
  GI50: 53.6 µM (inactive)
OVCAR-8
  GI50: 33.4 µM (inactive)
RXF 393
  GI50: 17.7 µM (inactive)
SK-OV-3
  GI50: 98.9 µM (inactive)
TK-10
  GI50: 20.8 µM (inactive)
UACC-62
  GI50: 17.9 µM (inactive)

## CNC(=O)N(CCCCC(NC(C)=O)C(=O)NCc1ccccc1)Cc1ccccc1 (stereo unspecified)
ACHN
  GI50: > 100 µM (inactive)
CAKI-1
  GI50: > 100 µM (inactive)
CCRF-CEM
  GI50: > 100 µM (inactive)
COLO 205
  GI50: > 100 µM (inactive)
EKVX
  GI50: > 100 µM (inactive)
HCT-116
  GI50: > 100 µM (inactive)
HOP-92
  GI50: > 100 µM (inactive)
IGROV-1
  GI50: > 100 µM (inactive)
M19-MEL
  GI50: > 100 µM (inactive)
Malme-3M
  GI50: > 100 µM (inactive)
NCI-H23
  GI50: > 100 µM (inactive)
NCI-H460
  GI50: > 100 µM (inactive)
OVCAR-5
  GI50: > 100 µM (inactive)
OVCAR-8
  GI50: > 100 µM (inactive)
RXF 393
  GI50: > 100 µM (inactive)
SK-OV-3
  GI50: > 100 µM (inactive)
TK-10
  GI50: > 100 µM (inactive)
UACC-62
  GI50: > 100 µM (inactive)

## CC1=CC(=O)c2cccc(O)c2C1=O
ACHN
  GI50: 1.78 µM (inactive)
BT-549
  GI50: 1.75 µM (inactive)
CAKI-1
  GI50: 1.88 µM (inactive)
CCRF-CEM
  GI50: 1.91 µM (inactive)
COLO 205
  GI50: 2.09 µM (inactive)
EKVX
  GI50: 4.29 µM (inactive)
HCT-116
  GI50: 1.91 µM (inactive)
HOP-92
  GI50: 1.85 µM (inactive)
IGROV-1
  GI50: 13.2 µM (inactive)
M19-MEL
  GI50: 1.98 µM (inactive)
Malme-3M
  GI50: 1.62 µM (inactive)
NCI-H23
  GI50: 2.96 µM (inactive)
NCI-H460
  GI50: 5.75 µM (inactive)
NCI/ADR-RES
  GI50: 1.82 µM (inactive)
OVCAR-5
  GI50: 8.09 µM (inactive)
OVCAR-8
  GI50: 2.56 µM (inactive)
RXF 393
  GI50: 1.88 µM (inactive)
SK-OV-3
  GI50: 14.3 µM (inactive)
TK-10
  GI50: 2.43 µM (inactive)
UACC-62
  GI50: 1.96 µM (inactive)

## CC1CSC(=S)N1C(=O)N1C(=S)SCC1C (stereo unspecified)
ACHN
  GI50: 18.5 µM (inactive)
BT-549
  GI50: 24.7 µM (inactive)
CAKI-1
  GI50: 20.4 µM (inactive)
CCRF-CEM
  GI50: 8.73 µM (inactive)
COLO 205
  GI50: 16.3 µM (inactive)
EKVX
  GI50: 28.8 µM (inactive)
HCT-116
  GI50: 24.4 µM (inactive)
HOP-92
  GI50: 27.7 µM (inactive)
IGROV-1
  GI50: 18.5 µM (inactive)
M19-MEL
  GI50: 25.6 µM (inactive)
Malme-3M
  GI50: 17.1 µM (inactive)
NCI-H23
  GI50: 20.3 µM (inactive)
NCI-H460
  GI50: 24.1 µM (inactive)
NCI/ADR-RES
  GI50: 19.1 µM (inactive)
OVCAR-5
  GI50: 30.3 µM (inactive)
OVCAR-8
  GI50: 16.7 µM (inactive)
RXF 393
  GI50: 12.9 µM (inactive)
SK-OV-3
  GI50: 40.9 µM (inactive)
TK-10
  GI50: 27.8 µM (inactive)
UACC-62
  GI50: 14.7 µM (inactive)

## COc1cc([C@@H]2c3cc4c(cc3[C@@H](OC3OC5CO[C@@H](c6cccs6)OC5C(O)C3O)[C@H]3COC(=O)[C@H]23)OCO4)cc(OC)c1O (stereo partly specified)
ACHN
  GI50: 0.173 µM (active)
BT-549
  GI50: 0.586 µM (active)
CAKI-1
  GI50: 0.0733 µM (active)
CCRF-CEM
  GI50: 0.046 µM (active)
COLO 205
  GI50: 0.527 µM (active)
EKVX
  GI50: 1.3 µM (inactive)
HCT-116
  GI50: 0.885 µM (active)
HOP-92
  GI50: 0.132 µM (active)
IGROV-1
  GI50: 1.7 µM (inactive)
M19-MEL
  GI50: 0.828 µM (active)
Malme-3M
  GI50: 0.656 µM (active)
NCI-H23
  GI50: 0.406 µM (active)
NCI-H460
  GI50: 0.0171 µM (active)
NCI/ADR-RES
  GI50: 23.4 µM (inactive)
OVCAR-5
  GI50: 1.77 µM (inactive)
OVCAR-8
  GI50: 0.538 µM (active)
RXF 393
  GI50: 0.478 µM (active)
SK-OV-3
  GI50: 0.395 µM (active)
TK-10
  GI50: 1.75 µM (inactive)
UACC-62
  GI50: 0.183 µM (active)

## CC1CCC2(C)C(CC=C(C=O)C2(O)C=O)C12CO2 (stereo unspecified)
ACHN
  GI50: 1.76 µM (inactive)
CAKI-1
  GI50: 2.96 µM (inactive)
CCRF-CEM
  GI50: 1.26 µM (inactive)
COLO 205
  GI50: 1.33 µM (inactive)
EKVX
  GI50: 6.98 µM (inactive)
HCT-116
  GI50: 1.49 µM (inactive)
HOP-92
  GI50: 2.01 µM (inactive)
IGROV-1
  GI50: 2.32 µM (inactive)
M19-MEL
  GI50: 1.73 µM (inactive)
Malme-3M
  GI50: 2.64 µM (inactive)
NCI-H23
  GI50: 2.25 µM (inactive)
NCI-H460
  GI50: 2.57 µM (inactive)
OVCAR-5
  GI50: 2.73 µM (inactive)
OVCAR-8
  GI50: 2.22 µM (inactive)
RXF 393
  GI50: 1.48 µM (inactive)
SK-OV-3
  GI50: 3.27 µM (inactive)
TK-10
  GI50: 1.97 µM (inactive)
UACC-62
  GI50: 1.64 µM (inactive)

## C1CSCCSCCCS[C@@H]2CCCCC2SC1 (stereo partly specified)
ACHN
  GI50: > 100 µM (inactive)
CAKI-1
  GI50: > 100 µM (inactive)
CCRF-CEM
  GI50: 20.8 µM (inactive)
COLO 205
  GI50: 52.5 µM (inactive)
EKVX
  GI50: > 100 µM (inactive)
HCT-116
  GI50: > 100 µM (inactive)
HOP-92
  GI50: 65.2 µM (inactive)
IGROV-1
  GI50: > 100 µM (inactive)
M19-MEL
  GI50: > 100 µM (inactive)
Malme-3M
  GI50: > 100 µM (inactive)
NCI-H23
  GI50: > 100 µM (inactive)
NCI-H460
  GI50: 44.1 µM (inactive)
OVCAR-5
  GI50: > 100 µM (inactive)
OVCAR-8
  GI50: > 100 µM (inactive)
RXF 393
  GI50: > 100 µM (inactive)
SK-OV-3
  GI50: > 100 µM (inactive)
TK-10
  GI50: > 100 µM (inactive)
UACC-62
  GI50: > 100 µM (inactive)

## NC(=O)CN(CC(N)=O)C(N)=O
ACHN
  GI50: > 100 µM (inactive)
CAKI-1
  GI50: > 100 µM (inactive)
CCRF-CEM
  GI50: > 100 µM (inactive)
COLO 205
  GI50: > 100 µM (inactive)
EKVX
  GI50: > 100 µM (inactive)
HCT-116
  GI50: > 100 µM (inactive)
HOP-92
  GI50: > 100 µM (inactive)
IGROV-1
  GI50: > 100 µM (inactive)
M19-MEL
  GI50: > 100 µM (inactive)
Malme-3M
  GI50: > 100 µM (inactive)
NCI-H23
  GI50: > 100 µM (inactive)
NCI-H460
  GI50: > 100 µM (inactive)
OVCAR-5
  GI50: > 100 µM (inactive)
OVCAR-8
  GI50: > 100 µM (inactive)
RXF 393
  GI50: > 100 µM (inactive)
SK-OV-3
  GI50: > 100 µM (inactive)
TK-10
  GI50: > 100 µM (inactive)
UACC-62
  GI50: > 100 µM (inactive)

## O=C1c2ccncc2C(=O)c2c(O)ccc(O)c21
ACHN
  GI50: 4.27 µM (inactive)
CAKI-1
  GI50: > 10 µM (inactive)
CCRF-CEM
  GI50: 4.33 µM (inactive)
COLO 205
  GI50: 3.72 µM (inactive)
EKVX
  GI50: 18 µM (inactive)
HCT-116
  GI50: 2.91 µM (inactive)
HOP-92
  GI50: 17.7 µM (inactive)
IGROV-1
  GI50: 12.5 µM (inactive)
M19-MEL
  GI50: 1.32 µM (inactive)
Malme-3M
  GI50: 1.69 µM (inactive)
NCI-H460
  GI50: 11.4 µM (inactive)
OVCAR-5
  GI50: 16 µM (inactive)
OVCAR-8
  GI50: 9.64 µM (inactive)
RXF 393
  GI50: 4.35 µM (inactive)
TK-10
  GI50: 27.5 µM (inactive)
UACC-62
  GI50: 3.12 µM (inactive)
